Tests used:
Format in all cases: cell-based
HFF-1 cell line = experiment: Toxicity for normal human foreskin fibroblast cell line; settings: normal human foreskin fibroblast HFF-1; for IC50: read-out: IC50 against HFF1 cell line
Source text: To assess the potential use of lead compounds as anti-melanoma agents, we tested their toxicity for the normal human foreskin fibroblast (HFF-1) cell line taking into consideration that MM is usually surrounded by the cells of this kind. The effects of some of the potent compounds on this cell line were very encouraging (table 4).

SK-MEL-2 = experiment: NCI DTP 60 cell line five-concentration test, melanoma panel; settings: for LC50 (50% lethal concentration) / GI50: Homo sapiens; for LC50 (50% lethal concentration): SK-MEL-2, read-out: LC50 (50% lethal concentration); for GI50 / TGI (total growth inhibition): SK-MEL-2 melanoma cell line
Protocol: (§1) In our effort to develop new methodologies to synthesize bioactive compounds [11–14], we have synthesized a number of thiazole and thiazolo-androstenone derivatives. We submitted 50 of the synthesized thiazole–androstenone derivatives to the National Cancer Institute (NCI) Development Therapeutics Program (DTP) to test against 60 cancer cell lines (https://dtp.cancer.gov/). These compounds were tested for cytotoxicity at a single dose of 10 µM. […] Eight of these chimeric compounds (figure 2) were selected for further testing at five different concentrations to determine 50% growth inhibition (GI50), total growth inhibition (TGI) and 50% lethal concentration (LC50) values. […] Overall, amino-thiazole derivatives (table 1, 1–7) were more toxic to melanoma cell lines than phenyl thiazole derivatives (8). Fluoro and oxy (hydroxy and methoxy) derivatives were the potent growth inhibitors of the tested cancer cell lines. LOX IMVI cell line was the most susceptible among all the melanoma cell lines used against the tested compounds (table 1). […] Phenyl ethyl derivative (1) inhibited the growth of all the cell lines except SK-MEL-2. […] 2,4-Dimethyl substituted derivative (7) is a potent growth inhibitor of all the tested cell lines of the melanoma panel.

MALME-3M = experiment: as above; settings: for CC50 / GI50: Homo sapiens; for CC50: Malme-3M, read-out: LC50 (50% lethal concentration); for GI50 / TGI (total growth inhibition): MALME-3M melanoma cell line
Protocol: as §1

LOX IMVI = experiment: as above; settings: for LC50 (50% lethal concentration) / GI50: Homo sapiens; for LC50 (50% lethal concentration): LOX IMVI, read-out: LC50 (50% lethal concentration); for GI50 / TGI (total growth inhibition): LOX IMVI melanoma cell line
Protocol: as §1

SK-MEL-28 = experiment: as above; settings: for CC50: SK-MEL-28, read-out: LC50 (50% lethal concentration)
Protocol: as §1

UACC-62 = experiment: as above; settings: for LC50 (50% lethal concentration): UACC-62, read-out: LC50 (50% lethal concentration)
Protocol: as §1

SK-MEL-5 = experiment: as above; settings: for CC50 / GI50: Homo sapiens; for CC50: SK-MEL-5, read-out: LC50 (50% lethal concentration); for GI50 / TGI (total growth inhibition): SK-MEL-5 melanoma cell line
Protocol: as §1

M14 = experiment: as above; settings: for CC50: M14, read-out: LC50 (50% lethal concentration)
Protocol: as §1

MDA-MB-435 = experiment: as above; settings: for CC50 / GI50: Homo sapiens; for CC50: MDA-MB-435, read-out: LC50 (50% lethal concentration); for GI50 / TGI (total growth inhibition): MDA-MB-435 melanoma cell line
Protocol: as §1

UACC-257 = experiment: as above; settings: for CC50 / GI50: Homo sapiens; for CC50: UACC-257, read-out: LC50 (50% lethal concentration); for GI50 / TGI (total growth inhibition): UACC-257 melanoma cell line
Protocol: as §1

[1] = tested on: caspase-activated DNase (CAD); experiment: CAD immunocytochemistry combined with TUNEL (caspase-mediated apoptosis); settings: melanoma cells, 5 or 10 µM, 24 h
Source text: (§2) The elevation was dose-dependent.
(§3) Figure 4. […] (c) Representative images. […] Mean ± s.e.m., n = 4 per group.
(§4) Figure 5. […] (a) Representative images of TUNEL colocalized or not colocalized with each of the three protein markers used in this study. […] Mean ± s.e.m., n = 4 per group.
(§5) Thus, to determine the mechanism of action of our compounds on melanoma cells in vitro, we applied the fluorescent TUNEL assay combined with quantitative ICC for three markers: HO1 for oxidative cell injury, CAD for caspase-mediated apoptosis and EndoG for caspase-independent apoptosis. […] However, none of the compounds or dacarbazine induced apoptotic endonucleases. This is not surprising because apoptotic endonucleases are commonly present in the cell in sufficient amounts to be able to destroy DNA upon cell death without induction (which most likely would not be possible in a dead cell).

endonuclease G (EndoG) = experiment: EndoG immunocytochemistry combined with TUNEL (caspase-independent apoptosis); settings: melanoma cells, 5 or 10 µM, 24 h
Source text: as §2, §3, §4, §5

SK-MEL-28 cell line = experiment: Annexin V flow cytometry apoptosis assay
Protocol: After determining the selective toxicity of potent molecules, we determined their mode of action against the melanoma cell line. Apoptosis or programmed cell death is a physiological process to remove unwanted or damaged mammalian cells. We detected apoptosis mode of cell death by our potent compounds using flow cytometry-based Annexin V assay. Compound 3 caused 23% apoptosis at 6 µM and 54% apoptosis at 12 µM (figure 3). 3-Fluorophenyl derivative (5) was a very potent apoptosis-inducing agent that caused 100% cell death at 12 µM concentration. Dacarbazine, the positive control, caused 22% apoptotic cell death at 200 µM concentration.
Figure 3. Apoptosis measurements using Annexin V flow cytometry assay of compounds 3 and 5 against SK-MEL-28 cell line at 6 and 12 µM concentrations. DMSO and dacarbazine (Daca) are negative and positive controls, respectively. Mean ± s.e.m., n = 3 per group.

heme oxygenase-1 (HO1) = experiment: HO1 immunocytochemistry combined with TUNEL (oxidative injury); settings: melanoma cells, 24 h; for HO1 staining in TUNEL-positive cells (oxidative injury): 5 or 10 µM; for HO1 mean intensity (oxidative injury): 10 µM
Source text: as §2, §3, §4, §5

[2] = Homo sapiens, SK-MEL-28, SK-MEL-28 melanoma cell line
[3] = Homo sapiens, UACC-62, UACC-62 melanoma cell line
[4] = Homo sapiens, M14, M14 melanoma cell line

SMILES | IC50 (HFF-1 cell line) | LC50 (50% lethal concentration) (SK-MEL-2) | GI50 (SK-MEL-2) | TGI (total growth inhibition) (SK-MEL-2) | CC50 (MALME-3M) | GI50 (MALME-3M) | TGI (total growth inhibition) (MALME-3M) | LC50 (50% lethal concentration) (LOX IMVI) | GI50 (LOX IMVI) | TGI (total growth inhibition) (LOX IMVI) | GI50 (SK-MEL-28; [2]) | CC50 (SK-MEL-28; Homo sapiens) | TGI (total growth inhibition) (SK-MEL-28; SK-MEL-28 melanoma cell line) | GI50 (UACC-62; [3]) | LC50 (50% lethal concentration) (UACC-62; Homo sapiens) | TGI (total growth inhibition) (UACC-62; UACC-62 melanoma cell line) | CC50 (SK-MEL-5) | GI50 (SK-MEL-5) | TGI (total growth inhibition) (SK-MEL-5) | GI50 (M14; [4]) | further results
C[C@]12CCc3nc(Nc4ccc(OC(F)(F)F)cc4)sc3C1=CC[C@@H]1[C@@H]2CC[C@]2(C)C(=O)CC[C@@H]12 [Compound 3] | > 100 µM | 55.6 µM | 3 µM | 11.6 µM | 84.5 µM | 3.45 µM | 16.8 µM | 5.82 µM | 1.74 µM | 3.18 µM | ≥ 1.32 µM | 49.2 µM | 7.98 µM | 3.03 µM | > 100 µM | 10.3 µM | 41.4 µM | 2.62 µM | 7.41 µM | 3.29 µM | toxicity against HFF1 cells (in words) (HFF-1 cell line): did not show any notable toxicity; GI50 (SK-MEL-28; SK-MEL-28 melanoma cell line): 1.88 µM; CC50 (M14; Homo sapiens): 46.6 µM; TGI (total growth inhibition) (M14; M14 melanoma cell line): 8.72 µM; CC50 (MDA-MB-435): 44.2 µM; GI50 (MDA-MB-435): 2.72 µM; TGI (total growth inhibition) (MDA-MB-435): 10.1 µM; CC50 (UACC-257): > 100 µM; GI50 (UACC-257): 4.89 µM; TGI (total growth inhibition) (UACC-257): 28.8 µM; CAD mean intensity [1]: No significant induction; colocalization of CAD with TUNEL (caspase-mediated apoptosis) [1]: induced the colocalization of CAD with TUNEL; EndoG mean intensity (endonuclease G (EndoG)): No significant induction; apoptosis (SK-MEL-28 cell line; SK-MEL-28, 6 µM): 23%; apoptosis (SK-MEL-28 cell line; SK-MEL-28, 12 µM): 54%; HO1 staining in TUNEL-positive cells (oxidative injury) (heme oxygenase-1 (HO1)): strongly induced oxidative injury
C[C@]12CCc3nc(Nc4ccccc4)sc3C1=CC[C@@H]1[C@@H]2CC[C@]2(C)C(=O)CC[C@@H]12 [Compound 2] | 21 µM | > 100 µM | 17.1 µM | 60.8 µM | > 100 µM | 21.2 µM | >100 µM | 48.1 µM | 3.22 µM | 10.8 µM | 20.5 µM | > 100 µM | >100 µM | < 10 µM | 89.7 µM | 29.6 µM | 66.2 µM | 10.2 µM | 26.0 µM | < 10 µM | GI50 (UACC-62; UACC-62 melanoma cell line): 9.54 µM; CC50 (M14; Homo sapiens): > 100 µM; GI50 (M14; M14 melanoma cell line): 7.88 µM; TGI (total growth inhibition) (M14; M14 melanoma cell line): 50.9 µM; CC50 (MDA-MB-435): > 100 µM; GI50 (MDA-MB-435): 3.49 µM; TGI (total growth inhibition) (MDA-MB-435): >100 µM; CC50 (UACC-257): > 100 µM; GI50 (UACC-257): 23.8 µM; TGI (total growth inhibition) (UACC-257): 94.5 µM
Cc1ccc(Nc2nc3c(s2)C2=CC[C@@H]4[C@H](CC[C@]5(C)C(=O)CC[C@@H]45)[C@@]2(C)CC3)c(C)c1 [Compound 7] | 40 µM | 22.7 µM | 2.19 µM | 4.74 µM | > 100 µM | 1.99 µM | 5.55 µM | 5.96 µM | 1.64 µM | 3.13 µM | 2.31 µM | > 100 µM | 6.08 µM | 1.72 µM | 9.02 µM | 3.94 µM | 7.47 µM | 1.86 µM | 3.73 µM | 1.85 µM | CC50 (M14; Homo sapiens): > 100 µM; TGI (total growth inhibition) (M14; M14 melanoma cell line): 3.79 µM; CC50 (MDA-MB-435): > 100 µM; GI50 (MDA-MB-435): 3.02 µM; TGI (total growth inhibition) (MDA-MB-435): >100 µM; CC50 (UACC-257): > 100 µM; GI50 (UACC-257): 3.7 µM
C[C@]12CCc3nc(Nc4cccc(F)c4)sc3C1=CC[C@@H]1[C@@H]2CC[C@]2(C)C(=O)CC[C@@H]12 [Compound 5] | 5.9 µM | 26.7 µM | 1.86 µM | 5.19 µM | 26.7 µM | 1.94 µM | 5.04 µM | 6.16 µM | 1.67 µM | 3.21 µM | ≥ 1.32 µM | 19.9 µM | 4.27 µM | 1.54 µM | 6.31 µM | 3.12 µM | 9.24 µM | 2.02 µM | 4.32 µM | 2.36 µM | toxicity against HFF1 cells (in words) (HFF-1 cell line): somewhat toxic; GI50 (SK-MEL-28; SK-MEL-28 melanoma cell line): 1.52 µM; CC50 (M14; Homo sapiens): 81.4 µM; TGI (total growth inhibition) (M14; M14 melanoma cell line): 7.23 µM; CC50 (MDA-MB-435): > 100 µM; GI50 (MDA-MB-435): 2.74 µM; TGI (total growth inhibition) (MDA-MB-435): 13.1 µM; CC50 (UACC-257): > 100 µM; GI50 (UACC-257): 5.47 µM; TGI (total growth inhibition) (UACC-257): 64 µM; CAD mean intensity [1]: No significant induction; colocalization of CAD with TUNEL (caspase-mediated apoptosis) [1]: induced the colocalization of CAD with TUNEL; EndoG mean intensity (endonuclease G (EndoG)): No significant induction; apoptosis (SK-MEL-28 cell line; SK-MEL-28, 12 µM): 100%; HO1 mean intensity (oxidative injury) (heme oxygenase-1 (HO1)): induced oxidative injury; HO1 staining in TUNEL-positive cells (oxidative injury) (heme oxygenase-1 (HO1)): strongly induced oxidative injury
C[C@]12CCc3nc(Nc4cccc(O)c4)sc3C1=CC[C@@H]1[C@@H]2CC[C@]2(C)C(=O)CC[C@@H]12 [Compound 4] | 8.6 µM | 91.4 µM | 2.86 µM | 9.99 µM | > 100 µM | 1.49 µM | 3.01 µM | 5.94 µM | 1.67 µM | 3.15 µM | ≥ 1.32 µM | > 100 µM | 3.31 µM | 2.08 µM | > 100 µM | 5.25 µM | > 100 µM | 5.7 µM | >100 µM | 2.97 µM | GI50 (SK-MEL-28; SK-MEL-28 melanoma cell line): 1.32 µM; CC50 (M14; Homo sapiens): > 100 µM; TGI (total growth inhibition) (M14; M14 melanoma cell line): >100 µM; CC50 (MDA-MB-435): > 100 µM; GI50 (MDA-MB-435): 2.53 µM; TGI (total growth inhibition) (MDA-MB-435): >100 µM; CC50 (UACC-257): > 100 µM; GI50 (UACC-257): 3.69 µM; TGI (total growth inhibition) (UACC-257): >100 µM; CAD mean intensity [1]: No significant induction; colocalization of CAD with TUNEL (caspase-mediated apoptosis) [1]: induced the colocalization of CAD with TUNEL; EndoG mean intensity (endonuclease G (EndoG)): No significant induction; HO1 mean intensity (oxidative injury) (heme oxygenase-1 (HO1)): induced oxidative injury
